Like-named read-outs stand apart in the source and are kept apart here. Non-standard residues stand in square brackets, D forms with d. Residues, ends and D or L forms follow the SMILES beside them. *: point of attachment. Dolaproine = CO[C@@H]([C@@H]1CCCN1)[C@@H](C)C(=O)O; Dil = CC[C@H](C)[C@H](NC)[C@@H](CC(=O)O)OC; X1 = C[C@@H](N*)[C@@H](O)c1ccccc1; NMeV = CN[C@H](C(=O)O)C(C)C

The results in this text go back to patent US12318457B2, “Oligosaccharide linker, linker-payload comprising the same and glycan chain-remodeled antibody-drug conjugate, preparation methods and uses thereof” (GENEQUANTUM HEALTHCARE (SUZHOU) CO., LTD., priority 2022, dated 2025).

Common to all, as to format: cell-based
Test [1] relates to ErbB2/HER2-positive human breast cancer cells BT-474. Description: Tumor cell proliferation inhibition (CellTiter Glo), BT-474. Here is the method: (§1) 1) ErbB2/HER2-positive human breast cancer cells BT-474, ErbB2/HER2-positive human gastric cancer cells NCI-N87 and ErbB2/HER2-negative human liver cancer cells HepG2 were inoculated into a 96-well cell plate at 100 μL/well (1000 to 10000 cells), and incubated overnight in a cell incubator under the conditions of 37° C., 5% CO2, 95% air and 100% humidity.
(§2) 3) The cell plate was removed from the 37° C. cell incubator, and equilibrated for about 30 min to rt. 100 μL of CellTiter Glo reagent was added into each well, a shaker shook for 2 min, followed by standing in a dark place at rt for 10 min, and the relative light unit (RLU) was measured with a Cytation 3 microplate reader.
In general terms: In ATP-based viability assays light output follows the ATP content of the culture.

Test [2] has as its system ErbB2/HER2-positive human gastric cancer cells NCI-N87. Nature of the test: Tumor cell proliferation inhibition (CellTiter Glo), NCI-N87. The method, then: as §1, §2
Test [3] deals with human liver cancer cells HepG2. Nature of the test: Tumor cell proliferation inhibition (CellTiter Glo), HepG2. Here is the method:
as §1, §2
(§3) For example, BxPC-3, FaDu, HepG2 and other human tumor cells were selected.
(§4) For example, TROP2-positive human tumor cells such as BxPC-3 (human pancreatic cancer cell) and FaDu (human throat cancer cell), and TROP2-negative tumor cells such as HepG2 (human liver cancer cell) were selected.

The test system of test [4] is BxPC-3 (human pancreatic cancer cell). Nature of the test: Tumor cell proliferation inhibition, BxPC-3. Here is the method:
as §1, §2, §3, §4

Test [5] has as its system FaDu (human throat cancer cell). Nature of the test: Tumor cell proliferation inhibition, FaDu. Here is the method: as §1, §2, §3, §4

`CC[C@H](C)[C@@H]([C@@H](CC(=O)N1CCC[C@H]1[C@H](OC)[C@@H](C)C(=O)N[C@H](C)[C@@H](O)c1ccccc1)OC)N(C)C(=O)[C@@H](NC(=O)[C@@H](NC)C(C)C)C(C)C` [MMAE, monomethylauristatin E] (H-[NMeV]V[Dil][Dolaproine]-X1): the IC50 in test [1] (BT-474, ErbB2/HER2-positive, 72 to 120 h, read-out: Proliferation Inhibition Effect on Tumor Cells (IC50)) stood at 0.272 nM; in test [2] (NCI-N87, ErbB2/HER2-positive, 72 to 120 h, read-out: Proliferation Inhibition Effect on Tumor Cells (IC50)), 0.248 nM; in test [3] (HepG2, ErbB2/HER2-negative, 72 to 120 h, read-out: Proliferation Inhibition Effect on Tumor Cells (IC50)), 0.567 nM; in test [3] (HepG2, TROP2-negative, Table 7, read-out: Proliferation Inhibition Action on Tumor Cells (IC50)) it was 0.398 nM; in test [4] (BxPC-3, TROP2-positive, Table 7, read-out: Proliferation Inhibition Action on Tumor Cells (IC50)) it was 0.388 nM; in test [5] (TROP2-positive, Table 7, read-out: Proliferation Inhibition Action on Tumor Cells (IC50)), 0.167 nM. Besides, the “maximum killing percentage relative to the control group” value in test [1] (BT-474, control puromycin 5 μM) stood at 86.46%; in test [2] (NCI-N87, control puromycin 5 μM) it was 90.78%; in test [3] (HepG2, ErbB2/HER2-negative, control puromycin 5 μM), 74.88%; in test [3] (HepG2, TROP2-negative), 83.43%; in test [4] (BxPC-3), 99.56%; in test [5], 90.87%.
